In patent US11478469B2, “Combination product of BCL-2 inhibitor and MDM2 inhibitor and use thereof in the prevention and/or treatment of diseases” (ASCENTAGE PHARMA (SUZHOU) CO., LTD., priority 2018, dated 2022):

Key:
[1] = tested on: human MV-4-11 AML xenograft; test: MV-4-11 AML xenograft in Balb/c nude mice; type: in vivo, mouse; details: for Response rate @D 22: mPD (progressive disease) / Best response rate: mPD (progressive disease): compound 6 100 mg/kg and/or APG-115 100 mg/kg, mice per group; for Response rate @D 22: mPD (progressive disease) / RTV @ D 22 / T/C (%) @ D 22: day 22; for RTV @ D 22 / T/C (%) @ D 22: compound 6 100 mg/kg p.o. qd×22 d and/or APG-115 100 mg/kg orally daily d1-7 and d16-22
Source text: (§1) A subcutaneous xenograft tumor model of human tumor immunodeficient mice was established by cell inoculation (see: Gould S E et al. Translational value of mouse models in oncology drug development. Nature medicine. 2015 21, 431-439; and, Souers A J et al. ABT-199, a potent and selective BCL-2 inhibitor, achieves antitumor activity while sparing platelets. Nature medicine. 2012 19.202-208): tumor cells in logarithmic growth phase were collected, counted and resuspended in 1×PBS, and the cell suspension concentration was adjusted to 2.5-5×10^7/mL. Using a 1 mL syringe ([…]), the tumor cells were inoculated subcutaneously in the right side of immunodeficient mice, 5-10×106/0.2 mL/mouse (experimental animals were purchased from Beijing Vital River Laboratory Animal Technology Co., Ltd. SCXK (Beijing) 2016-0006). All animal experiments were strictly in accordance with the laboratory animal use and management practices of GenePharma Co., Ltd. and Ascentage Pharma Group Co., Ltd. The calculation of relevant parameters referred to the Chinese CFDA “Guidelines for Non-Clinical Research Techniques of Cytotoxic Antitumor Drugs”.
(§2) Animal body weight and tumor size were measured twice a week during the experiment. The conditions and death of the animals were observed every day. Routine monitoring included the effects of tumor growth and treatment on normal animal behaviors, including activity, feeding and drinking situations, weight gain or loss, eyes, coat and other abnormalities in the experimental animals. The deaths and clinical symptoms observed during the experiment were recorded in the raw data. The entire operations of administration, measurement of mouse body weight and tumor volume were performed in a clean bench. Plasma and tumor tissues were collected, weighed and photographed after the end of the last administration according to the experimental protocol. Plasma and tumor samples were frozen and stored at −80° C.
(§3) Tumor volume (TV) was calculated as: TV=a×b2/2, in which a and b represented the length and width of the tumor as measured, respectively. The relative tumor volume (RTV) was calculated as: RTV=Vt/V1, in which V1 was the tumor volume at the time of grouping and administration, and Vt was the tumor volume measured on a day after administration. The evaluation index of anti-tumor activity was the relative tumor proliferation rate T/C (%), which was calculated as: relative tumor proliferation rate T/C (%)=(TRTV/CRTV)×100%, in which TRTV was the RTV of the treatment group, CRTV was the RTV of the vehicle control group; tumor remission rate (%) was calculated as: (the number of SD (stable disease), PR (tumor partial regression) and CR (tumor complete regression) in the tumor-bearing mice after treatment)/the total number of mice in the group×100%. Change of body weight %=(measured body weight−body weight at the time of grouping)/body weight at the time of grouping×100%.
(§4) The synergistic analysis was performed by the following formula (Gould S E et al. Translational value of mouse models in oncology drug development. Nature medicine. 2015 21, 431-439): synergy factor=((A/C)×(B/C))/(AB/C); A=RTV value of the group administered with A only; B═RTV value of the group administered with B only; C=RTV value of the vehicle control group; AB=RTV value of the group administered with A and B in combination (Clarke R. Issues in experimental design and endpoint analysis in the study of experimental cytotoxic agents in vivo in breast cancer and other models [J]. Breast Cancer Research & Treatment, 1997, 46(2-3): 255-278).
(1) The experimental method was as described in Section (2) of Example 1. Compound 6 is a selective BCL-2 inhibitor developed by the Ascentage Pharma Group. The agent is currently under clinical development for cancer therapy both in China and in the US. Enhanced anti-proliferation activity of APG-115 in combination with compound 6 has been observed in cell-based assay in AML cell lines in vitro. […]

[2] = tested on: human OCI-AML-3 (AML) mouse xenograft tumor; test: Human OCI-AML-3 AML mouse xenograft tumor model; type: in vivo; details: for antitumor effect in words: 11 days of administration, Compound 6 25 or 100 mg/kg qd, APG-115 100 mg/kg (d1-d4) and 50 mg/kg (d5-d11) q2d
Source text: as §1, §2, §3, §4
(1) The experimental method was as described in Section (2) of Example 1. […] Therefore, a mouse xenograft tumor model was further established using the OCI-AML-3 tumor cell line to evaluate the in vivo anti-tumor effects of Compound 6 and APG-115. […]

[3] = tested on: MV-4-11 (acute myeloid leukemia (AML)); test: CellTiter-Glo (CTG) cell proliferation assay, MV-4-11; type: cell-based; details: Homo sapiens, MV4-11; MV-4-11, single agent alone, 24 hours; read-out: IC50 for inhibition of proliferation
Description: Anti-proliferative effects were tested by CellTiter-Glo® (CTG) assay. Cells were seeded in 96-well plates and treated with different concentrations of test substance for 24 hours. […] Each test dose was tested with 3 replicate wells. Usually, 9 series of doses of the test substance were selected, and added to 96-well plates, 5 μl/well. For the combination experiment, the final volume of the two test substances was 5 μl/well. Each test dose was tested with 3 replicate wells. On the same plate, 3-6 wells were selected and added with 100 μl of dilution solution as a control group, and another 3-6 wells were used as a blank control. […] After mixing on a shaker for 2 minutes, leaving at room temperature for 10 minutes, the fluorescence value was read by using a Biotek synergy HIMF plate reader. […] For the combination test, the cell viability was calculated by normalizing the average OD value of 3 duplicate wells of the single drug control. […] Cell viability (%) values of Compound 6 alone and the combination of Compound 6 and APG-115 in the following malignant tumor cells were determined in the CTG experiment: OCI-AML-3 (acute myeloid leukemia (AML)), MV-4-11 (acute myeloid leukemia (AML)), KMS-26 (multiple myeloma (MM)), KMS-11 (multiple myeloma (MM)).

[4] = APG-115 50 mg/kg alone (text: 100 mg/kg d1-d4, 50 mg/kg d5-d11, q2d)
[5] = Compound 6 25 mg/kg qd, alone or with APG-115 50 mg/kg
[6] = Compound 6 100 mg/kg qd, alone or with APG-115 50 mg/kg

CCN1[C@@H](C(=O)NC23CCC(C(=O)O)(CC2)CC3)[C@H](c2cccc(Cl)c2F)[C@]2(C(=O)Nc3cc(Cl)ccc32)C12CCCCC2 [APG-115]
Response rate @D 22: mPD (progressive disease) [1]: 6/6 mPD
Best response rate: mPD (progressive disease) [1]: 6/6 mPD
RTV @ D 22 [1]: 9.2 ± 2.3
T/C (%) @ D 22 [1]: 67.1%
antitumor effect in words [2]: did not exhibit tumor growth inhibition
RTV on day 11 after administration [2, 4]: 12.5 ± 2.5
T/C (%) value on day 11 after administration [2, 4]: 69%
IC50 [3]: 1960 nM

O=C(NS(=O)(=O)c1ccc(NC[C@H]2COCCO2)c([N+](=O)[O-])c1)c1ccc(N2CCN(CC3=C(c4ccc(Cl)cc4)CC4(CCC4)CC3)CC2)cc1Oc1cnc2[nH]ccc2c1 [Compound 6, (S)-N-((4-(((1,4-dioxan-2-yl)methyl)amino)-3-nitrophe-nyl)sulfonyl)-2-((1H-pyrrolo[2,3-b]pyridin-5-yl)oxy)-4-(4-((6-(4-chlorophenyl)spiro[3.5]non-6-en-7-yl)meth-yl)piperazin-1-yl)benzamide]
Response rate @D 22: mPD (progressive disease) [1]: 6/6 mPD
Best response rate: mPD (progressive disease) [1]: 6/6 mPD
RTV @ D 22 [1]: 7.5 ± 0.9
T/C (%) @ D 22 [1]: 55.1%
antitumor effect in words [2]: did not exhibit tumor growth inhibition
RTV on day 11 after administration [2, 5]: 16.2 ± 2.3
T/C (%) value on day 11 after administration [2, 5]: 90%
RTV on day 11 after administration [2, 6]: 13.0 ± 1.9
T/C (%) value on day 11 after administration [2, 6]: 72%
IC50 [3]: 84.7 nM
